Measurements as given in PMC8715119, “Second-generation non-hematopoietic erythropoietin-derived peptide for neuroprotection” (Redox Biology, 2021).

Columns and labels:
[1] = test system: differentiated neuronal PC12 cells; experiment: Cell viability (MTS) under H2O2-induced oxidative stress; format: cell-based, rat; conditions: H2O2 for 24 h; reEPO 0.5 IU/ml, ML1 1 ng/ml or ML1 analogs; n = 5; Fig. 4a
Protocol: PC12 cells (#CRL-1721, ATCC, USA), a rat pheochromocytoma cell line derived from the adrenal medulla (#CRL-1721, ATCC, USA), were seeded on a dish, which was coated by poly L-lysine (0.01%; Sigma Chemical Co., USA), and grown in RPMI 1640 medium (#11875093, Gibco, USA), supplemented with 10% heat-inactivated horse serum (#26050088, Gibco, USA), 5% fetal bovine serum (FBS) (#SH30919.03, Hyclone, USA), and 1% penicillin/streptomycin at 37°C with 5% CO2. For neuronal differentiation, PC12 cells were plated at a density of 1.25x10^3 cell/cm^2 into 96-well plates coated with collagen 1 (#354236, BD Biosciences, USA) and grown in RPMI 1640 medium supplemented with 50 ng/ml nerve growth factor (NGF) (BD Biosciences, USA) and 0.5% FBS for 10 days. The NGF-supplemented media was replaced with fresh media every 3 days during neuronal differentiation.
Cell viability was evaluated by 3-[(4,5-dimethylthiazol-2-yl)-5,3-carboxymethoxyphenyl]-2-(4-sulfophenyl)-2H tetrazolium, inner salt (MTS) reduction assay (CellTiter 96 Aqueous One Solution Cell Proliferation Assay, Promega, Madison, WI, USA). Briefly, differentiated neuronal-PC12 cells were treated with H2O2 (300 μM) with or without reEPO and peptides for 24 h. The PC12 cells were washed with PBS; 20 ul MTS solution was added to each well with 100 μl PBS, and the cells were incubated for 3 h at 37°C and 5% CO2. The intracellular soluble formazan produced by cellular reduction of the MTS was determined by recording the absorbance at 490 nm using a microplate reader (VersaMax, Molecular Devices, USA). Cell proliferation was also evaluated by the MTS assay. Undifferentiated PC12 cells were seeded into a 96-well plate (5x10^4 cells/well). The next day, the initial cell number was counted; after 48 h, under low FBS concentration (0.5%), with or without reEPO and peptides, cell number was measured by the MTS assay.

HT-22 cells = experiment: TUNEL assay after hypoxia and re-oxygenation; format: cell-based, mouse; conditions: hypoxia 18 h, re-oxygenation 3 h; reEPO 0.5 IU/ml, ML1-h3 1 ng/ml; n = 5
Protocol: HT-22 cells (kindly provided by Prof. Gil-Saeng Jeong in Keimyung University), an immortalized mouse hippocampal cell line, were cultured at 37°C and 5% CO2 in Dulbecco's modified eagle medium (DMEM, Invitrogen, USA) supplemented with 10% FBS and 1% penicillin/streptomycin at 37°C and 5% CO2.
The HT-22 cells were seeded onto 96-well or 6-well plates. The next day, HT-22 cells were placed inside a sealed air-tight container consisting of an anaeropack (Mitsubishi Gas Company, Tokyo, Japan), which can induce a hypoxic atmosphere by absorbing oxygen and generating carbon dioxide. The cells were maintained in the hypoxic condition at 37°C for 18 h and re-oxygenated for 3 h at 37°C and 5% CO2. Subsequently, the cells were treated with reEPO or the peptides for 19 h before viability analysis.
We fixed the cells with 4% paraformaldehyde in PBS on a slide at 25°C, washed them with PBS, and then treated them with 3% H2O2 in methanol for 10 min. After washing with PBS, we treated the cells with 0.1% sodium citrate in 0.1% Triton X-100 on sample slides for 2 min on ice and washed again with PBS. Subsequently, we treated the cells with the TUNEL reaction mixture for 60 min at 37°C in the dark. After washing thrice with PBS, 50 μl of TUNEL peroxidase (POD) was added to the slides for 30 min at 37°C in the dark. […]

[2] = test system: rat primary cortical neurons; experiment: Viability (Calcein-AM) under glutamate-induced excitotoxicity; format: cell-based; conditions: glutamate (30 μM) for 24 h, reEPO 0.5 IU/ml, peptides 1 ng/ml, n = 3, Fig. 4e
Protocol: On the embryonic day 17, embryonic cerebral cortices were dissected from pregnant Sprague–Dawley rats. The cerebral cortices were treated with 0.25% trypsin-EDTA (#25200056, Gibco, USA) and then mechanically dissociated into single cells by pipetting. The dissociated cells were plated on 96-well plates coated by 50 μg/ml poly-L-lysine (P8920, Sigma-Aldrich, USA) at a density of 2.5 × 10^4 cells per well. They were incubated in neurobasal medium (#21103049, Gibco, USA) containing 2% B27 supplement (#17504044, Gibco, USA), 0.5 mM L-glutamine (#15430614, Gibco, USA), 25 μM glutamic acid (#G1251, Sigma-Aldrich, USA), and 1% penicillin/streptomycin (#15140122, Gibco, USA) at 37°C with 5% CO2. The medium was changed to a fresh medium without glutamate every 3–4 days, and on day 10, glutamic acid (30 μM) was added to induce excitotoxicity in the cells treated with or without reEPO and peptides.
To measure the viability of rat primary cortical neurons, we used Calcein-AM (#C3100MP, Invitrogen, USA). Cultured rat cortical neurons plated on 96-well plates (2.5 × 10^4 cells per well) were incubated with Calcein-AM (3 μM) for 30 min after various treatments. The intensity of the Calcein-AM signal (excitation, 485 nm; detection 535 nm) was measured by using a micro plate reader (VersaMax, Molecular Devices, USA).

ERK = experiment: Time-series immunoblot of phosphorylated ERK; format: cell-based, rat; conditions: PC12 cells; 1 nM; peak at 15 min, below basal at 30 min, then recovery; n = 3
Protocol: PC12 or HT-22 cells were lysed in 100 mM Tris-Cl (pH 6.8) with 4% SDS. The lysates were loaded onto sodium dodecyl sulfate-polyacrylamide gel electrophoresis (SDS-PAGE) (8–10%), and the proteins were transferred onto the nitrocellulose membrane. The membrane was blocked with 0.1% TBST and 5% non-fat dry milk at 25°C for 30 min. Primary antibodies were diluted in 0.1% TBST and 3% bovine serum albumin (BSA). The primary antibodies included anti-pJAK2 (#3776, Cell Signaling Technology, USA), anti-JAK2 (#3230, Cell Signaling Technology, USA), anti-pSTAT5 (#9351, Cell Signaling Technology, USA), anti-STAT5 ([…], Cell Signaling Technology, USA), anti-pAKT (#9271, Cell Signaling Technology, USA), anti-AKT (#9272, Cell Signaling Technology, USA), anti-pERK (#9101, Cell Signaling Technology, USA) anti-ERK (#9102, Cell Signaling Technology, USA), anti-EPOR (#sc-365662, Santa Cruz Biotechnology, USA), anti-β-Actin (Santa Cruz Biotechnology, USA), anti-Bax (Santa Cruz Biotechnology, USA), anti-cleaved Casp3 (Cell Signaling Technology, USA), and anti-cleaved Parp1 (Cell Signaling Technology, USA).

## reEPO: Recombinant human EPO (Epoetin-α, CJ HealthCare Corporation)
[1]
  Cell death under H2O2-induced oxidative stress (cell viability): significantly suppressed the cell death
HT-22 cells
  TUNEL-positive cells under H/R: dramatically decreased the TUNEL-positive cells
[2]
  Neuroprotective effect against glutamate-induced excitotoxicity (viability): showed a neuroprotective effect against glutamate-induced excitotoxicity
ERK
  Level of phosphorylated ERK (pERK) over time: acutely increased the level of phosphorylated ERK
